Key:
[1] = tested on: HDF normal diploid fibroblast cells; assay: FACS assay (cell death), HDF; type: cell-based; settings: 50% cell death, 72 h
Description: These assays allow determination of both cell death and changes in cell cycle profile in cells following treatment of the compound. The assay is performend as follows: • 1. Cells are incubated in DMEM to which 10% FCS has been added in a humidified incubator at 37° C. and 5% by volume of CO2 in air. The cells are innoculated in 6-well plates at a density of 0.5–5×10^5 cells per well. • 2. The test compound is added in serial dilutions 24–36 h after plating in 0.5% DMSO. The plates are then incubated a further 72 h in the presence of the compound. During this time, cells in control cultures undergo at least three cell divisions. • 3. After incubation, the media is collected and cells are harvested by trypsinization. The cells and media are pooled and pelleted by centrifugation. • 4. The cell pellet is fixed in a final volume of 3 mL of 50% ice cold MeOH and incubated for a minimum of 30 min at −20° C. • 5. The cells are pelleted by centrifugation and resuspended in 0.5 mL PBS containing 1%FCS, […] Propidium Iodide (PI) and 5 mg/mL RNase A and incubated 30 min at 37° C. in the dark. • 6. The samples are analysed by flow cytometry using the relative incorporation of PI as a measure of DNA content of each cell. The % Dead cells is recorded as % of events with less than 2N DNA. […] HDF are normal diploid fibroblast cells. RKO are colon adenocarcinoma cells and MES/SA are ovarian carcinoma cells.

c-fms = molecular target: T1, c-fms (Homo sapiens, UniProt P07333); assay: c-fms protein kinase assay (SPA); type: biochemical; settings: Table 7, class symbols; read-out: c-fms kinase inhibition IC50
T1 sequence (P07333 539-972 limits assumed): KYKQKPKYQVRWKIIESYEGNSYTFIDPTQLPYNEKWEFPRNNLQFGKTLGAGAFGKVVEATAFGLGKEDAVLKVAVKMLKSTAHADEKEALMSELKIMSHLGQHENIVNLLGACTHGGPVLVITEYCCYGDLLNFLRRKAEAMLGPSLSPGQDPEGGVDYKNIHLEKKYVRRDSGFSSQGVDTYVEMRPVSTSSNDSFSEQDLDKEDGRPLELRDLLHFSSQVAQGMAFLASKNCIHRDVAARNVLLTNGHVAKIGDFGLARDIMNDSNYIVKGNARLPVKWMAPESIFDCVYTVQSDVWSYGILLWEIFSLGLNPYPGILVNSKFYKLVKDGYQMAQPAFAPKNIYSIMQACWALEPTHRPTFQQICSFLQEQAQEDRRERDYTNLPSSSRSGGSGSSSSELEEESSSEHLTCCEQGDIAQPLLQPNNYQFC
Description: c-fms protein kinase assays utilized the peptide substrate, biotin-[…]-NH2, as the phosphoryl group acceptor. The c-fms intracellular domain was expressed from a baculovirus expression system, as an amino-terminal GST fusion protein, and purified to homogeneity using Glutathione agarose from Sigma Chemical Co. Maximum activation of the enzyme was achieved by preactivation at room temperature for 120 min in the presence of 100 μM ATP and 15 mM MgCl2, This enzyme stock was diluted to 150 nM prior to using in the assay. Typically assays were performed in white, opaque, 96-well plates in a 45 ul assay volume including 15 ul 6% DMSO, with or without compounds, 15 ul of the preactivated, diluted enzyme, and 15 ul of a substrate mixture. Reactions contained 50 mM HEPES, pH 7.5, 1.7 μM ATP, 15 mM MgCl2, 3 μM peptide, 2.5 mM DTT, 50 mM NaCl and 0.15 uCi/assay [^32P]ATP. The controls were reactions in the presence (negative controls) or absence (positive controls) of 50 mM EDTA. Reactions were allowed to proceed for 90 min at room temperature. The reaction products were quantified using Scintillation Proximity technolgy. […] Plates were sealed and counted in a Packard Topcount scintillation counter. […]

[2] = tested on: HDF normal diploid fibroblast cells; assay: MTT assay, HDF; type: cell-based; settings: Fibroblast, 72 h
Description: Compounds are tested for their ability to inhibit cell proliferation and cell viability. The metabolic conversion of 3-(4,5-dimethylthiazol-2-yl)-2,5-diphenyltetrazolium bromide (MTT, Sigma #M2128) to a reduced form is a commonly used measure of cellular viability. Following is the procedure: Cells are maintained in 75 cm^2 tissue culture flasks until ready for use. The cells are grown and plated for the assay in Dulbecco's modified Eagle's media (DMEM) containing 10% fetal bovine serum. For example, the following cell lines can be used: a) human foreskin fibroblasts (HFF); b) HT29 (human colon carcinoma cell line); c) MDA-MB468 (human breast carcinoma cell line); d) RKO (human colon adenocarcinoma cell line); e) SW620 (human colon carcinoma cell line); f A549 (human lung carcinoma cell line); and g) MIA PACA (human pancreatic carcinoma cell line). Cells are maintained at 37° C. in 10% CO2, 90% humidified air. Cells are plated in 96-well tissue culture plates at the densities listed below. 100 μL of cell suspension is added to each well of the 96-well plate except the top row of the plate which contains no cells and serves as a reference for the spectrophotometer. [table] Cells are incubated overnight in DMEM containing 10% fetal bovine serum at 37° C. in 10% CO2, 90% humidified air prior to dosing. […] Compounds with solubilities of less than 30 μM are dosed at the highest soluble concentration. Stock solutions of compounds are made in 100% dimethyl sulfoxide (DMSO). Stock solutions are diluted in DMEM containing 100 μg/ml gentamicin and 0.3 to 0.6% DMSO at the twice the highest concentration to be placed on the cells. If compounds have been dissolved in DMSO the final concentration of DMSO on the cells is kept below 0.3%. Three-fold serial dilutions are performed on each compound to prepare 10 concentrations of the compound for dosing. 100 μl of diluted compound is added to the 100 μl of media currently on the dish. For each concentration of compound, 2–4 replicate wells are prepared. Cells are returned to incubator and allowed to proliferate in the presence of compound for 72 h before addition of MTT. […] After 4 h incubation the media, compound and MTT mixture is aspirated from the plates and 100 μl of 100% DMSO is added to each well in addition to 25 μl of Sorenson's Buffer (0.1M glycine, 0.1M NaCl, pH 10.5). Quantitation of metabolic reduction of MTT in each plate is performed by reading optical density at 570 nm wavelength on a Molecular Devices UVmax microplate reader. […] HDF are normal diploid fibroblast cells. RKO are colon adenocarcinoma cells and MES/SA are ovarian carcinoma cells.

CDK2 = CDK2 (Homo sapiens, UniProt P24941); assay: CDK2 substrate phosphorylation assay; type: biochemical
Description: CDK1 and CDK2 were both expressed utilizing a baculovirus expression system and were partially purified to comprise 20–80% of total protein, with no detectable competing reactions present. […] Reactions were terminated with 0.2–2 volumes of either 20% acetic acid or 50–100 mM EDTA buffered to pH 7 (substrate consumption <20%). The buffer employed in enzyme assays was either 30 mM HEPES 7.4 containing 0.15 M NaCl and 5% DMSO, the buffer 50 mM MOPS 7.0 containing 0.15 M NaCl and 5% DMSO, or the buffer 100 mM HEPES pH 7.5 containing 0.1 mg/mL BSA and 5% DMSO. Inhibitors were diluted in 100% DMSO prior to addition into the assay. Detection of peptide phosphorylation was accomplished by scintillation counting following either collection of peptide onto phosphocellulose filters (for reactions stopped with acetic acid), collection of peptide in wells of 96 well plates coated with Streptavidin (Pierce) (reactions were stopped with EDTA), or addition of Avidin coated Scintillant impregnated beads (Scintillation Proximity Assays from Amersham, reactions were stopped with EDTA).
CDK1 and CDK2 were both expressed utilizing a baculovirus expression system and were partially purified to comprise 20–80% of total protein, with no detectable competing reactions present. […]

[3] = tested on: etoposide-induced alopecia; assay: Protection from chemotherapy-induced alopecia in rat pups; type: in vivo, Sprague-Dawley rat; settings: 6 mg/kg etoposide intraperitoneally
Description: Protection from chemotherapy-induced alopecia is determined in 7 day old Sprague-Dawley rat pups. The treatment is carried out by administering the compounds topically to the head of the animal in doses from 0.01 to 10 mg/kg 2 h before and 2 h after the administration of a single dose of 6 mg/kg etoposide intraperitoneally. Six days after dosing, animals are scored visually for hair loss using a grading scale from 1 (complete hair loss) to 4 (no apparent hair loss). In this assay, the prior treatment of the animal with the compound of this invention results in a marked reduction in the severity of alopecia compared to vehicle treated controls. Under the above described conditions of treatment, the compounds of the present invention also protect against other toxicities of etoposide. […] Animals treated with the compounds of the present invention in combination with etoposide, in the schedule indicated above, gain weight normally and even exceed the body weight of control, untreated animals.

SMILES	IC50 [1] [µM]	IC50 [2] [µM]	other results
CCC(C)Cc1cccc2c1C(=NNc1ccc(S(N)(=O)=O)cc1)C(=O)N2 (stereo not drawn) [Example 11]	> 5	–	–
O=C1Nc2ccc3ncccc3c2/C1=C/Nc1ccc(CCO)cc1 [Example 32]	–	–	IC50 (c-fms): > 0.1 µM
CN(C)S(=O)(=O)c1ccc(NC=C2C(=O)Nc3ccc(-c4cnco4)cc32)cc1 [Example 35]	> 5	> 5	–
CS(=O)(=O)Cc1ccc(NC=C2C(=O)Nc3ccc4ncsc4c32)cc1 [Example 76, 8-(4-Methylsulfonylmethyl-phenylamino-methylene)-6,8-dihydro-1-thia-3,6-diaza-as-indacen-7-one]	> 5	> 5	–
CC(C)(CO)CNS(=O)(=O)c1ccc(NC=C2C(=O)Nc3ccc4ncsc4c32)cc1 [Example 77, N-(3-Hydroxy-2,2-dimethyl-propyl)4-[(7-oxo-6,7-dihydro-1-thia-3,6-diaza-as-indacen-8-ylidenemethyl)-amino]-benzenesulfonamide]	> 5	> 5	–
CNS(=O)(=O)Cc1ccc(NN=C2C(=O)Nc3cc(C)c(O)c(C)c32)cc1 [Example 99]	> 5	0.6 to 1	IC50 (CDK2): 0.051 to 0.1 µM
O=C1Nc2ccc3ncsc3c2C1=CNc1ccc2nn[nH]c2c1 [Example 101, 8-(3H-Benzotriazol-5-ylaminomethylene)-6,8-dihydro-1-thia-3,6-diaza-as-indacene-7-one]	> 5	> 5	–
CC(C)COC(=O)c1ccc2c(c1)C(=CNc1ccc(S(N)(=O)=O)cc1)C(=O)N2 [Example 103, 2-Oxo-3-(4-sulfamoyl-phenylamino-methylene)-2,3-dihydro-1H-indole-5-carboxylic acid isobutyl ester]	–	1.1 to 5	–
COc1cc([C@@H]2c3cc4c(cc3[C@@H](O[C@@H]3O[C@@H]5CO[C@@H](C)O[C@H]5[C@H](O)[C@H]3O)[C@H]3COC(=O)[C@H]23)OCO4)cc(OC)c1O [etoposide]	–	–	body weight gain, etoposide alone compared to untreated animals [3]: dramatic lack of weight gain

From patent US7105529B2, “Substituted oxindole derivatives as protein tyrosine and as protein serine/threonine kinase inhibitors and compositions and methods of treating chemotherapy and radiation therapy side effects” (SmithKline Beecham Corporation, priority 1997, dated 2006)
